Experimental data published in publication PMC5218480 (PLoS ONE, 2017).

System: MV-4-11 cells
Experiment: Gene expression microarray analysis (Affymetrix PrimeView) and GSEA
Format: cell-based, human
Parameters: RFU PODN (11730768_x_at) / Fold change /veh PODN (11730768_x_at) / RFU LINC00158 (11744669_a_at) / Fold change /veh LINC00158 (11744669_a_at) / RFU DUSP10 (11751237_a_at) / Fold change /veh DUSP10 (11751237_a_at) / RFU ID3 (11757404_x_at) / Fold change /veh ID3 (11757404_x_at) / RFU PLEKHG5 (11737974_s_at) / Fold change /veh PLEKHG5 (11737974_s_at) / RFU LRRC4B (11730491_at) / Fold change /veh LRRC4B (11730491_at) / RFU GIMAP4 (11747438_a_at) / Fold change /veh GIMAP4 (11747438_a_at) / RFU KRT8 (11758183_x_at) / Fold change /veh KRT8 (11758183_x_at) / RFU CNN1 (11734310_a_at) / Fold change /veh CNN1 (11734310_a_at) / RFU VPS37D (11726825_at) / Fold change /veh VPS37D (11726825_at) / RFU C10orf10 (11716522_x_at) / Fold change /veh C10orf10 (11716522_x_at) / RFU KIR2DL2 /// KIR2DL4 /// KIR2DL5A /// KIR2DL5B /// KIR2DS1 /// KIR2DS2 /// KIR2DS3 /// KIR2DS4 /// KIR3DL3 /// KIR3DL3 /// KIR3DS1 (11738374_at) / Fold change /veh KIR2DL2 /// KIR2DL4 /// KIR2DL5A /// KIR2DL5B /// KIR2DS1 /// KIR2DS2 /// KIR2DS3 /// KIR2DS4 /// KIR3DL3 /// KIR3DL3 /// KIR3DS1 (11738374_at) / RFU C1QL1 (11718748_at) / Fold change /veh C1QL1 (11718748_at) / RFU TMPRSS4 (11747572_a_at) / Fold change /veh TMPRSS4 (11747572_a_at) / RFU HAMP (11756126_x_at) / Fold change /veh HAMP (11756126_x_at) / RFU RNFT2 (11725882_a_at) / Fold change /veh RNFT2 (11725882_a_at) / RFU NR4A2 (11747474_a_at) / Fold change /veh NR4A2 (11747474_a_at) / RFU ABCC12 (11746883_a_at) / Fold change /veh ABCC12 (11746883_a_at) / RFU TMEM136 (11760407_x_at) / Fold change /veh TMEM136 (11760407_x_at) / RFU CLDN22 /// WWC2 (11732394_at) / Fold change /veh CLDN22 /// WWC2 (11732394_at) / RFU HLA-DPB1 (11760878_x_at) / Fold change /veh HLA-DPB1 (11760878_x_at) / RFU SPINT1 (11716480_a_at) / Fold change /veh SPINT1 (11716480_a_at) / RFU GAP43 (11754022_s_at) / Fold change /veh GAP43 (11754022_s_at) / RFU A4GNT (11735810_at) / Fold change /veh A4GNT (11735810_at) / RFU PRB3 (11715151_x_at) / Fold change /veh PRB3 (11715151_x_at) / RFU TUBB4B (11761932_at) / Fold change /veh TUBB4B (11761932_at) / RFU CAPN14 (11732068_a_at) / Fold change /veh CAPN14 (11732068_a_at) / RFU TMCC2 (11721928_a_at) / Fold change /veh TMCC2 (11721928_a_at) / RFU IRGQ (11745062_a_at) / Fold change /veh IRGQ (11745062_a_at) / RFU FAM174B (11720279_a_at) / Fold change /veh FAM174B (11720279_a_at) / RFU TMPRSS4 (11748680_a_at) / Fold change /veh TMPRSS4 (11748680_a_at) / RFU FAM212B (11763350_a_at) / Fold change /veh FAM212B (11763350_a_at) / RFU PLEKHG5 (11743358_a_at) / Fold change /veh PLEKHG5 (11743358_a_at) / RFU ZSCAN30 (11745921_a_at) / Fold change /veh ZSCAN30 (11745921_a_at) / RFU CMKLR1 (11741424_a_at) / Fold change /veh CMKLR1 (11741424_a_at) / RFU LOC101060620 /// MAPK8IP1 (11723275_at) / Fold change /veh LOC101060620 /// MAPK8IP1 (11723275_at) / RFU SPTSSB (11747773_x_at) / Fold change /veh SPTSSB (11747773_x_at) / RFU PRSS12 (11739890_at) / Fold change /veh PRSS12 (11739890_at) / RFU BIN1 (11741810_x_at) / Fold change /veh BIN1 (11741810_x_at) / RFU WNT11 (11732464_a_at) / Fold change /veh WNT11 (11732464_a_at) / RFU C10orf10 (11716521_a_at) / Fold change /veh C10orf10 (11716521_a_at) / RFU C5orf56 (11738089_at) / Fold change /veh C5orf56 (11738089_at) / RFU CYB561 (11721691_x_at) / Fold change /veh CYB561 (11721691_x_at) / RFU ANKRD19P (11752326_a_at) / Fold change /veh ANKRD19P (11752326_a_at) / RFU OR2T12 /// OR2T33 /// OR2T8 (11738714_s_at) / Fold change /veh OR2T12 /// OR2T33 /// OR2T8 (11738714_s_at) / RFU VCAN (11748164_a_at) / Fold change /veh VCAN (11748164_a_at) / RFU JSRP1 (11732532_at) / Fold change /veh JSRP1 (11732532_at) / RFU KRTAP10-11 (11738290_x_at) / Fold change /veh KRTAP10-11 (11738290_x_at) / RFU MYO3A (11730013_a_at) / Fold change /veh MYO3A (11730013_a_at) / RFU EBF3 (11725865_a_at) / Fold change /veh EBF3 (11725865_a_at) / RFU CAMK2N1 (11719241_x_at) / Fold change /veh CAMK2N1 (11719241_x_at) / RFU C5orf56 (11738088_a_at) / Fold change /veh C5orf56 (11738088_a_at) / RFU OLFML3 (11715873_a_at) / Fold change /veh OLFML3 (11715873_a_at) / RFU LOC100653217 /// NTM (11731650_a_at) / Fold change /veh LOC100653217 /// NTM (11731650_a_at) / RFU MAPK11 (11762145_a_at) / Fold change /veh MAPK11 (11762145_a_at) / RFU FIZ1 (11724087_x_at) / Fold change /veh FIZ1 (11724087_x_at) / RFU OASL (11726364_x_at) / Fold change /veh OASL (11726364_x_at) / RFU SOX15 (11748057_x_at) / Fold change /veh SOX15 (11748057_x_at) / RFU CD79A (11719716_a_at) / Fold change /veh CD79A (11719716_a_at) / RFU HIST1H1D (11736915_at) / Fold change /veh HIST1H1D (11736915_at) / RFU CASKIN2 (11723855_a_at) / Fold change /veh CASKIN2 (11723855_a_at) / RFU LOC730098 (11760151_x_at) / Fold change /veh LOC730098 (11760151_x_at) / RFU OR4N2 (11742367_at) / Fold change /veh OR4N2 (11742367_at) / RFU PRRT2 (11749266_a_at) / Fold change /veh PRRT2 (11749266_a_at) / RFU SNX32 (11753110_a_at) / Fold change /veh SNX32 (11753110_a_at) / RFU CDHR5 (11726645_a_at) / Fold change /veh CDHR5 (11726645_a_at) / RFU RCAN1 (11760418_a_at) / Fold change /veh RCAN1 (11760418_a_at) / RFU FAM167A (11723789_a_at) / Fold change /veh FAM167A (11723789_a_at) / RFU FAM26E (11764081_at) / Fold change /veh FAM26E (11764081_at) / RFU ISYNA1 (11749810_s_at) / Fold change /veh ISYNA1 (11749810_s_at) / RFU ACY1 (11761880_at) / Fold change /veh ACY1 (11761880_at) / RFU 11764098_at / Fold change /veh 11764098_at / RFU SAMD14 (11745864_x_at) / Fold change /veh SAMD14 (11745864_x_at) / RFU NPB (11741838_a_at) / Fold change /veh NPB (11741838_a_at) / RFU TMPRSS6 (11731388_a_at) / Fold change /veh TMPRSS6 (11731388_a_at) / RFU KRTAP10-2 (11738614_at) / Fold change /veh KRTAP10-2 (11738614_at) / RFU ARHGAP8 /// PRR5-ARHGAP8 (11727945_x_at) / Fold change /veh ARHGAP8 /// PRR5-ARHGAP8 (11727945_x_at) / RFU KRTAP5-7 /// NADSYN1 (11734609_at) / Fold change /veh KRTAP5-7 /// NADSYN1 (11734609_at) / RFU RASL12 (11751679_a_at) / Fold change /veh RASL12 (11751679_a_at) / RFU CDKN2B (11736163_a_at) / Fold change /veh CDKN2B (11736163_a_at) / RFU PRF1 (11729649_at) / Fold change /veh PRF1 (11729649_at) / RFU, ZNF638 /// ZNF638-IT1 / Fold change vs veh, ZNF638 /// ZNF638-IT1 / RFU, PANK3 / Fold change vs veh, PANK3 / RFU, SH3YL1 / Fold change vs veh, SH3YL1 / RFU, ZEB2 / Fold change vs veh, ZEB2 / RFU, NRIP1 / Fold change vs veh, NRIP1 / RFU, PTTG1IP / Fold change vs veh, PTTG1IP / RFU, CAPN2 / Fold change vs veh, CAPN2 / RFU, MED14 / Fold change vs veh, MED14 / RFU, SNORA58 / Fold change vs veh, SNORA58 / RFU, C1orf63 / Fold change vs veh, C1orf63 / RFU, LRRFIP1 / Fold change vs veh, LRRFIP1 / RFU, NDUFAF7 / Fold change vs veh, NDUFAF7 / RFU, SLC12A2 / Fold change vs veh, SLC12A2 / RFU, IBTK / Fold change vs veh, IBTK / RFU, ESF1 / Fold change vs veh, ESF1 / Fold change vs veh, TMEM50B / RFU, TAOK1 / Fold change vs veh, TAOK1 / RFU, ACBD3 / Fold change vs veh, ACBD3 / RFU, TMA16 / Fold change vs veh, TMA16 / RFU, RWDD3 / Fold change vs veh, RWDD3 / RFU, BCAT1 / Fold change vs veh, BCAT1 / RFU, EDEM3 / Fold change vs veh, EDEM3 / RFU, TMEM33 / Fold change vs veh, TMEM33 / RFU, WDR75 / Fold change vs veh, WDR75 / RFU, AHCTF1 / Fold change vs veh, AHCTF1 / RFU, TFRC / Fold change vs veh, TFRC / RFU, ZDHHC17 / Fold change vs veh, ZDHHC17 / RFU, NOM1 / Fold change vs veh, NOM1 / RFU, ARL8B / Fold change vs veh, ARL8B / RFU, ZBTB11 / Fold change vs veh, ZBTB11 / RFU, TAMM41 / Fold change vs veh, TAMM41 / RFU, KIAA1704 /// LOC100996395 / Fold change vs veh, KIAA1704 /// LOC100996395 / RFU, ING1 / Fold change vs veh, ING1 / RFU, TRMT61B / Fold change vs veh, TRMT61B / RFU, FUBP3 / Fold change vs veh, FUBP3 / RFU, TP53 / Fold change vs veh, TP53 / RFU, TNKS2 / Fold change vs veh, TNKS2 / RFU, ZFP14 / Fold change vs veh, ZFP14 / RFU, ACTR2 / Fold change vs veh, ACTR2 / RFU, PPP3R1 / Fold change vs veh, PPP3R1 / RFU, PIK3R1 / Fold change vs veh, PIK3R1 / RFU, HNRNPA1 / Fold change vs veh, HNRNPA1 / RFU, RNF170 / Fold change vs veh, RNF170 / RFU, ZNF28 / Fold change vs veh, ZNF28 / RFU, RNGTT / Fold change vs veh, RNGTT / RFU, OGT / Fold change vs veh, OGT / RFU, BRD1 / Fold change vs veh, BRD1 / RFU, MARS / Fold change vs veh, MARS / RFU, ZNF655 / Fold change vs veh, ZNF655 / RFU, FAHD1 / Fold change vs veh, FAHD1 / RFU, BDP1 / Fold change vs veh, BDP1 / RFU, LRRCC1 / Fold change vs veh, LRRCC1 / RFU, ARID1A / Fold change vs veh, ARID1A / RFU, ZNF146 / Fold change vs veh, ZNF146 / RFU, ZNF330 / Fold change vs veh, ZNF330 / RFU, GPN3 / Fold change vs veh, GPN3 / RFU, C9orf123 / Fold change vs veh, C9orf123 / RFU, N4BP2L2 / Fold change vs veh, N4BP2L2 / RFU, ARFIP1 / Fold change vs veh, ARFIP1 / RFU, FAM179B / Fold change vs veh, FAM179B / RFU, BCL10 / Fold change vs veh, BCL10 / RFU, UHRF1BP1L / Fold change vs veh, UHRF1BP1L / RFU, BET1 / Fold change vs veh, BET1 / RFU, CNOT2 / Fold change vs veh, CNOT2 / RFU, ZNF268 / Fold change vs veh, ZNF268 / Fold change vs veh, ZNF507 / RFU, DGCR2 / Fold change vs veh, DGCR2 / RFU, WDSUB1 / Fold change vs veh, WDSUB1 / Fold change vs veh, HSP90B1 /// MIR3652 / RFU, ADSS / Fold change vs veh, ADSS / RFU, GK / Fold change vs veh, GK / RFU, ZNF148 / Fold change vs veh, ZNF148 / RFU, TAF9 / Fold change vs veh, TAF9 / RFU, SLC1A5 / Fold change vs veh, SLC1A5 / RFU, SLMO2 / Fold change vs veh, SLMO2 / RFU, ABCC4 / Fold change vs veh, ABCC4 / RFU, LOC101060439 /// RAP1B / Fold change vs veh, LOC101060439 /// RAP1B / RFU, RFX7 / Fold change vs veh, RFX7 / RFU, GTPBP10 / Fold change vs veh, GTPBP10 / RFU, CNEP1R1 / Fold change vs veh, CNEP1R1 / RFU, BIVM-ERCC5 /// ERCC5 / Fold change vs veh, BIVM-ERCC5 /// ERCC5 / RFU, ILF3 / Fold change vs veh, ILF3 / RFU 11762660_at / Fold change /veh 11762660_at / RFU VCAN (11757783_s_at) / Fold change /veh VCAN (11757783_s_at) / RFU DDX43 (11728927_at) / Fold change /veh DDX43 (11728927_at) / RFU KRT8 (11758188_x_at) / Fold change /veh KRT8 (11758188_x_at) / RFU NKD1 (11759106_at) / Fold change /veh NKD1 (11759106_at) / RFU SRD5A1 (11742802_a_at) / Fold change /veh SRD5A1 (11742802_a_at) / RFU TPSAB1 /// TPSB2 (11721975_s_at) / Fold change /veh TPSAB1 /// TPSB2 (11721975_s_at) / RFU GSTM3 (11746129_a_at) / Fold change /veh GSTM3 (11746129_a_at) / RFU IL23R (11737362_x_at) / Fold change /veh IL23R (11737362_x_at) / RFU TMEM51 (11727254_a_at) / Fold change /veh TMEM51 (11727254_a_at) / RFU PIWIL2 (11732686_x_at) / Fold change /veh PIWIL2 (11732686_x_at) / RFU ORM1 (11744905_x_at) / Fold change /veh ORM1 (11744905_x_at) / RFU CCDC152 (11743942_at) / Fold change /veh CCDC152 (11743942_at) / RFU ECM1 (11717891_a_at) / Fold change /veh ECM1 (11717891_a_at) / RFU IL23R (11748794_a_at) / Fold change /veh IL23R (11748794_a_at) / RFU TNFAIP8L3 (11732012_x_at) / Fold change /veh TNFAIP8L3 (11732012_x_at) / RFU MBOAT4 (11741988_at) / Fold change /veh MBOAT4 (11741988_at) / RFU 11764193_at / Fold change /veh 11764193_at / RFU TMEM53 (11763286_at) / Fold change /veh TMEM53 (11763286_at) / RFU MAGEB2 (11727129_at) / Fold change /veh MAGEB2 (11727129_at) / RFU TMEM200A (11744735_a_at) / Fold change /veh TMEM200A (11744735_a_at) / RFU CCDC152 (11751479_a_at) / Fold change /veh CCDC152 (11751479_a_at) / RFU FAM211A (11726209_a_at) / Fold change /veh FAM211A (11726209_a_at) / RFU RGS16 (11746705_a_at) / Fold change /veh RGS16 (11746705_a_at) / RFU VCAN (11755009_s_at) / Fold change /veh VCAN (11755009_s_at) / RFU RHOB (11743442_s_at) / Fold change /veh RHOB (11743442_s_at) / RFU RGS16 (11720943_a_at) / Fold change /veh RGS16 (11720943_a_at) / RFU RGS16 (11720944_at) / Fold change /veh RGS16 (11720944_at) / RFU, VPS4B / Fold change vs veh, VPS4B / RFU, CREB1 / Fold change vs veh, CREB1 / RFU, DNAJC13 / Fold change vs veh, DNAJC13 / RFU, GNAQ / Fold change vs veh, GNAQ / RFU, CDK5R1 / Fold change vs veh, CDK5R1 / RFU, ZRANB3 / Fold change vs veh, ZRANB3 / RFU, CUL4A / Fold change vs veh, CUL4A / RFU, CCNY / Fold change vs veh, CCNY / RFU, UFL1 / Fold change vs veh, UFL1 / RFU, COG3 / Fold change vs veh, COG3 / RFU, DIAPH2 / Fold change vs veh, DIAPH2 / RFU, SKA2 / Fold change vs veh, SKA2 / RFU, AFF3 / Fold change vs veh, AFF3 / RFU, LMF1 / Fold change vs veh, LMF1 / RFU, IPO11 / Fold change vs veh, IPO11 / RFU, DFFB / Fold change vs veh, DFFB / RFU, FOXP1 / Fold change vs veh, FOXP1 / RFU, CARD8 / Fold change vs veh, CARD8 / RFU, STRN3 / Fold change vs veh, STRN3 / RFU, ADK / Fold change vs veh, ADK / RFU, RASSF2 / Fold change vs veh, RASSF2 / RFU, WIPF1 / Fold change vs veh, WIPF1 / RFU, LARP1B / Fold change vs veh, LARP1B / RFU, RASA1 / Fold change vs veh, RASA1 / RFU, RB1 / Fold change vs veh, RB1 / RFU, PPFIA1 / Fold change vs veh, PPFIA1 / RFU, MAT2A / Fold change vs veh, MAT2A / RFU, CCT5 / Fold change vs veh, CCT5 / RFU, WDR92 / Fold change vs veh, WDR92 / RFU, CUX1 / Fold change vs veh, CUX1 / RFU, TTC7A / Fold change vs veh, TTC7A / RFU, TMEM135 / Fold change vs veh, TMEM135 / RFU, DEPTOR / Fold change vs veh, DEPTOR / RFU, CPM / Fold change vs veh, CPM / RFU, DNAJB6 / Fold change vs veh, DNAJB6 / RFU, CACNA2D3 / Fold change vs veh, CACNA2D3 / RFU, DTX4 / Fold change vs veh, DTX4 / RFU, TFCP2 / Fold change vs veh, TFCP2 / RFU, GMCL1 /// GMCL1P1 / Fold change vs veh, GMCL1 /// GMCL1P1 / RFU, AEBP2 / Fold change vs veh, AEBP2 / RFU, SNHG1 /// SNORD22 /// SNORD25 /// SNORD26 /// SNORD27 /// SNORD28 /// SNORD29 /// SNORD31 / Fold change vs veh, SNHG1 /// SNORD22 /// SNORD25 /// SNORD26 /// SNORD27 /// SNORD28 /// SNORD29 /// SNORD31 / Fold change (Aza/veh), C12orf56 (ProbeSet 11735607_a_at) / Fold change (ACY-1035/veh), C12orf56 (ProbeSet 11735607_a_at) / Fold change (Aza/veh), FGFR1OP (ProbeSet 11751329_s_at) / Fold change (ACY-1035/veh), FGFR1OP (ProbeSet 11751329_s_at) / Fold change (Aza/veh), VPS36 (ProbeSet 11739960_a_at) / Fold change (ACY-1035/veh), VPS36 (ProbeSet 11739960_a_at) / RFU SYPL1 (11715823_x_at) / Fold change /veh SYPL1 (11715823_x_at) / RFU IGFBP7 (11715501_s_at) / Fold change /veh IGFBP7 (11715501_s_at) / RFU REEP3 (11722064_at) / Fold change /veh REEP3 (11722064_at) / RFU IGLL1 (11728026_x_at) / Fold change /veh IGLL1 (11728026_x_at): dose or concentration left out as unconfirmed
Conditions: ProbeSet 11721969_s_at; LIST B

**Q.** For `Nc1ncn([C@@H]2O[C@H](CO)[C@@H](O)[C@H]2O)c(=O)n1` [azacitidine], which “Fold change vs veh, BDP1” value is on record?
**A.** Its value is 0.86.
